Test results reported in PubChem BioAssay (NCI).
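Grown in 96-well plates, cells were treated for 48 hours with each compound at five concentrations. Insufficient inhibition: endpoint recorded as highest concentration tested. TGI: concentration producing complete growth inhibition.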

Tests used:
Experiment in all cases: NCI tumour cell line growth inhibition, 48 h
[1] = test system: 786-0 renal
[2] = test system: A498 renal
[3] = test system: BT-549 breast
[4] = test system: CCRF-CEM leukemia
[5] = test system: DU-145 prostate
[6] = test system: EKVX NSCLC
[7] = test system: HS 578T breast
[8] = test system: K-562 leukemia
[9] = test system: MCF7 breast
[10] = test system: NCI-H23 lung
[11] = test system: OVCAR-3 ovarian
[12] = test system: OVCAR-5 ovarian
[13] = test system: SF-295 CNS
[14] = test system: SK-MEL-28 melanoma
[15] = test system: SN12C renal
[16] = test system: SNB-75 CNS
[17] = test system: UACC-257 melanoma
[18] = test system: UO-31 renal

SMILES	TGI [1] [µM]	TGI [2] [µM]	TGI [3] [µM]	TGI [4] [µM]	TGI [5] [µM]	TGI [6] [µM]	TGI [7] [µM]	TGI [8] [µM]	TGI [9] [µM]	TGI [10] [µM]	TGI [11] [µM]	TGI [12] [µM]	TGI [13] [µM]	TGI [14] [µM]	TGI [15] [µM]	TGI [16] [µM]	TGI [17] [µM]	TGI [18] [µM]
CCC(=O)N/S(=N/S(=O)(=O)c1ccccc1)C(Cl)(Cl)Cl (stereo unspecified)	> 100	> 100	> 100	> 100	> 100	> 100	> 100	> 100	> 100	> 100	> 100	> 100	> 100	> 100	> 100	> 100	> 100	> 100
CC(C)=NOC(=O)CNC(=O)C(Cc1ccccc1)NC(=O)C(C)NC(=O)OC(C)(C)C (stereo unspecified)	> 100	> 100	> 100	> 100	> 100	> 100	> 100	> 100	> 100	> 100	> 100	> 100	> 100	> 100	> 100	> 100	> 100	> 100
COc1ccc2c(O)c(S(=O)(=O)c3ccc(C)cc3)c(=O)oc2c1OC	> 100	–	> 100	> 100	> 100	> 100	> 100	> 100	> 100	> 100	> 100	> 100	> 100	> 100	> 100	> 100	> 100	> 100
Clc1ccc(-c2cc(-c3cc4cc(Br)ccc4nc3Cl)on2)cc1	> 50	41.9	> 50	36.2	> 50	36.2	> 50	> 50	43.8	46.5	30.7	> 50	> 50	29.3	> 50	> 50	46	> 50
NC(=O)CSc1c2cc(O)ccc2nc2ccc(O)cc12	> 10	> 10	> 10	> 10	> 10	> 10	> 10	> 10	> 10	> 10	> 10	> 10	> 10	> 10	> 10	> 10	> 10	–
CC(Oc1ccc(Oc2cnc3ccc(Cl)cc3n2)cc1)C(=O)O (stereo unspecified)	> 100	> 100	> 100	> 100	> 100	> 100	> 100	> 100	> 100	> 100	> 100	> 100	> 100	> 100	> 100	> 100	> 100	> 100
Cc1nc2ccc(S(=O)(=O)NS(=O)(=O)c3ccc(-c4ccccc4)cc3)cc2c(=O)n1NS(=O)(=O)c1ccc(-c2ccccc2)cc1	> 100	> 100	> 100	> 100	> 100	> 100	> 100	> 100	> 100	> 100	> 100	> 100	> 100	> 100	> 100	> 100	> 100	> 100
O=[N+]([O-])c1ccc(C2ON=C(c3ccccc3)N2C23CC4CC(CC(C4)C2)C3)cc1 (stereo unspecified)	> 10	> 10	> 10	> 10	> 10	> 10	> 10	> 10	> 10	> 10	> 10	> 10	> 10	> 10	> 10	> 10	> 10	–
COC1(C2c3ccccc3CCN2C(=O)OC(C)(C)C)C(=O)C(c2ccccc2)=C1N(C)C (stereo unspecified)	93.3	62.6	75	> 100	> 100	> 100	96.9	–	> 100	71.6	70.6	> 100	> 100	> 100	39.9	> 100	> 100	64.4
Cc1ccc(/C=C2\NC(=S)NC2=O)cc1	> 100	–	> 100	> 100	> 100	> 100	> 100	> 100	> 100	> 100	> 100	> 100	> 100	> 100	> 100	> 100	–	> 100
Nc1ccc(-c2nc3ccc(F)cc3s2)cc1Cl	> 100	> 100	> 100	> 100	> 100	> 100	> 100	> 100	> 100	> 100	> 100	> 100	> 89.2	> 100	> 100	> 59.9	> 100	> 100
CCCCCCCCC/C=C1/CC(CO)(COC(=O)CC(C(C)C)C(C)C)OC1=O (stereo unspecified)	16.1	12.6	27.7	25	25.3	20.1	3.91	28.6	24.4	26.9	27.6	24.6	16.2	31.8	18	18.9	26	18.1
Oc1[nH]c2ccccc2c1C1=Nc2ccccc2/C1=N\OCCOC1OCC(O)C(O)C1O (stereo unspecified)	> 100	–	> 100	> 100	> 100	> 100	> 100	> 100	> 100	> 100	> 100	> 100	> 100	> 100	> 100	> 100	> 100	> 100
COc1ccc2oc(S(=O)(=O)N3CC(CCl)c4ccc(N)cc43)cc2c1 (stereo unspecified)	> 10.6	> 52.1	> 55.8	12.7	0.515	> 100	> 100	> 60.1	> 58.6	> 100	> 100	> 100	> 100	> 100	> 100	> 100	> 100	> 100
COc1ccc(/C=C2\C[C@H]3[C@@H]4CCC5=C/C(=N/O)CC[C@]5(C)[C@H]4CC[C@]3(C)\C2=N\O)cc1	> 100	–	53.7	–	> 100	> 100	> 100	> 100	88.5	> 100	> 100	> 100	> 100	> 100	> 100	> 100	> 100	57.5
Cc1cccc2[nH]c3c(c(O)cc4[nH]c5cccc(C)c5c(=O)c43)c(=O)c12	8.03	> 10	> 10	> 10	> 10	> 10	> 10	> 10	> 10	8.5	> 10	> 10	> 10	> 10	> 10	> 10	> 10	–
CCC(C)C(N)C(=O)N/N=C\c1c2c(nc3ccccc13)-c1cc3c(c(=O)n1C2)COC(=O)[C@]3(O)CC (stereo partly specified)	1.12	1.43	> 30.2	–	2.04	> 100	> 100	> 45.1	1.61	0.401	8.95	> 43.5	1.37	> 100	> 32.5	13.3	11.9	1.4
CC12CC(=O)Nc3ccccc3N1C(c1ccccc1)=NO2 (stereo unspecified)	> 100	> 100	> 100	> 100	> 100	> 100	> 100	> 100	> 100	> 100	> 100	> 100	> 100	–	> 100	> 100	> 100	> 100
COc1cc(C2c3cc4c(cc3OC(NNS(=O)(=O)c3ccc(C)cc3)C2C)OCO4)cc(OC)c1OC (stereo unspecified)	31.5	5.69	45.6	–	> 100	18.3	15.2	–	> 39.8	> 74.6	7.78	> 100	6.86	> 91.2	> 71.4	17.1	> 53.2	> 100
FC(F)(F)c1ccc2c(c1)nc1n2C(c2c(Cl)cccc2Cl)SC1 (stereo unspecified)	33.4	32.7	55.3	–	56.1	32.3	59.3	–	55.2	60.1	28.8	32.3	33.6	43.3	32.2	45.1	42.9	31.8
COc1ccc2cc(CNCCCCCCCCNCc3ccc4cc(OC)ccc4c3)ccc2c1	> 100	9.68	9.97	7.27	> 100	–	> 20.8	47.7	> 100	> 100	9.86	10.1	41.2	9.8	–	11.1	10.1	–
CC1(C)CC(=O)c2c(nc3c(ccc4ccccc43)c2-c2ccc(NC(=O)CCC(=O)Nc3ccc(-c4c5c(nc6c4ccc4ccccc46)CC(C)(C)CC5=O)cc3)cc2)C1	> 100	–	> 100	> 100	> 100	> 100	> 100	> 100	> 100	–	> 100	> 100	> 100	> 100	> 100	> 100	> 100	> 100
COc1ccc(-c2oc3cc(OC)c(OC)c(O)c3c(=O)c2OC)cc1	68.2	–	42	> 100	> 100	> 100	72.3	> 100	> 100	–	–	> 100	46.9	> 100	> 100	37.4	> 100	> 100
Oc1ccc(/C=C/c2cccc(/C=C/c3ccc(O)c(O)c3)n2)cc1O	24.7	26.2	> 100	> 100	20.6	25.5	> 100	49.6	25.8	–	> 100	23.6	65.1	38.3	27.5	16.5	28.5	11.2
N#CCCN(CCC#N)c1ccc(/C=C2\N=C(c3ccccc3)N(c3ccc(C(=O)O)cc3)C2=O)cc1	> 100	> 100	71.2	–	> 100	> 100	58.5	> 100	> 100	–	> 100	> 100	> 100	> 100	> 100	–	> 100	> 100
Cc1ccc(S(=O)(=O)CNC(=O)C(O)(O)C(F)(F)F)cc1	> 100	> 100	> 100	> 100	> 100	> 100	> 100	> 100	> 100	> 100	> 100	> 100	> 100	> 100	> 100	–	> 100	> 100
Cc1ccc2nc3n[nH]c(N)c3nc2c1	> 100	> 100	> 100	> 100	> 100	> 100	> 100	–	> 100	> 100	> 100	> 100	> 100	> 100	> 100	> 100	> 100	> 100
